Measurements from patent US9492437B2, “Otamixaban for treatment of elderly and renal impaired non-ST elevation myocardial infarction patients” (SANOFI, priority 2009, dated 2016).

System: patients with Unstable angina/Non ST segment Elevation Myocardial infarction
Experiment: randomized, double-blind triple-dummy trial, efficacy (endpoint of the study: all-cause death and new myocardial infarction)
Format: in vivo, human
Text: The following results are based on a randomized, double-blind triple-dummy trial to compare otamixaban to Unfractionated Heparin+eptifibatide, in patients with Unstable angina/Non ST segment Elevation Myocardial infarction scheduled to undergo an early invasive strategy.
Patient with non STE-segment elevation Acute Coronary Syndrome with the following symptoms: […]
UFH: 60 IU/Kg as IV bolus ([…]) followed by an IV infusion of 12 U/Kg/h (max 1000 IU/h) to maintain a PTT at 1.5 to 2.0 times control and at the time of the PCI additional boluses needed if the ACT is not in the range of 200-250 seconds. NB: In order for the study to be blinded, all aPTTs and ACTs performed in order to adjust Drug B (UFH/placebo) dosing will be performed using an encrypted Hemochron Signature Elite machine (or as a back-up, a local device with a third-party unblinded healthcare professional).
Eptifibatide: a single bolus of 180 mcg/kg followed by an infusion of 2 mcg/kg/min. In patients with CrCl<50 mL/min the infusion rate will be decreased to 1 mcg/kg/min.
Primary endpoint: Adjudicated composite of all-cause death and new myocardial infarction (MI) within 7 days following randomization
The events will be adjudicated by a blinded independent adjudication committee. Since the goal of treating acute ACS without persistent ST segment elevation is to prevent associated morbidity and mortality, death and myocardial infarction are considered to be the clinically most meaningful endpoints in therapeutic studies, whereas recurrent ischemia or refractory angina is of more uncertain clinical relevance (EMEA/CPCP/EWP/570/98; February 2008).
The primary endpoint has been defined as the double clinical efficacy endpoint (all cause death and Myocardial Infarction based on centrally adjudicated data) that will be assessed at Day 7. Further estimation of this endpoint will be done at Day 30, Day 90 and Day 180 (end of the follow up) to check persistence of effect as recommended by the EMEA guideline (EMEA/CPCP/EWP/570/98; February 2008).
Myocardial Infarction is considered to be a hard component of a combined efficacy endpoint for confirmatory clinical trials. The definition of Myocardial Infarction will be based on ACC/AHA, ESC and WHF consensus (J Am Coll Cardiol, 2007; 50:2173-2195; Eur Heart J, 2007, 28: 2525-2538): […]

[1] = age 65 to 75 years, Ota. infusion 0.035 mg/Kg/h
[2] = age 65 to 75 years, Ota. infusion 0.070 mg/Kg/h
[3] = age 65 to 75 years, Ota. infusion 0.105 mg/Kg/h
[4] = age 65 to 75 years, Ota. infusion 0.140 mg/Kg/h
[5] = age 65 to 75 years, Ota. infusion 0.175 mg/Kg/h
[6] = age <65 years, Ota. infusion 0.035 mg/Kg/h
[7] = age <65 years, Ota. infusion 0.070 mg/Kg/h
[8] = age <65 years, Ota. infusion 0.105 mg/Kg/h
[9] = age <65 years, Ota. infusion 0.140 mg/Kg/h
[10] = age <65 years, Ota. infusion 0.175 mg/Kg/h
[11] = age older than 75 years, Ota. infusion 0.035 mg/Kg/h
[12] = age older than 75 years, Ota. infusion 0.070 mg/Kg/h
[13] = age older than 75 years, Ota. infusion 0.105 mg/Kg/h
[14] = age older than 75 years, Ota. infusion 0.140 mg/Kg/h
[15] = age older than 75 years, Ota. infusion 0.175 mg/Kg/h
[16] = creatinine clearance 30 to 50 ml/min, Ota. infusion 0.070 mg/Kg/h
[17] = creatinine clearance 30 to 50 ml/min, Ota. infusion 0.105 mg/Kg/h
[18] = creatinine clearance 30 to 50 ml/min, Ota. infusion 0.140 mg/Kg/h
[19] = creatinine clearance 30 to 50 ml/min, Ota. infusion 0.175 mg/Kg/h
[20] = creatinine clearance 50 to 80 ml/min, Ota. infusion 0.035 mg/Kg/h
[21] = creatinine clearance 50 to 80 ml/min, Ota. infusion 0.070 mg/Kg/h
[22] = creatinine clearance 50 to 80 ml/min, Ota. infusion 0.105 mg/Kg/h
[23] = creatinine clearance 50 to 80 ml/min, Ota. infusion 0.140 mg/Kg/h
[24] = creatinine clearance 50 to 80 ml/min, Ota. infusion 0.175 mg/Kg/h
[25] = creatinine clearance <30 ml/min, Ota. infusion 0.140 mg/Kg/h
[26] = creatinine clearance more than 80 ml/min, Ota. infusion 0.035 mg/Kg/h
[27] = creatinine clearance more than 80 ml/min, Ota. infusion 0.070 mg/Kg/h
[28] = creatinine clearance more than 80 ml/min, Ota. infusion 0.105 mg/Kg/h
[29] = creatinine clearance more than 80 ml/min, Ota. infusion 0.140 mg/Kg/h
[30] = creatinine clearance more than 80 ml/min, Ota. infusion 0.175 mg/Kg/h
[31] = dose arms from 0.105 to 0.175 mg/Kg/h (dose arm 3 to 5)

COC(=O)C(Cc1cccc(C(=N)N)c1)[C@@H](C)NC(=O)c1ccc(-c2cc[n+]([O-])cc2)cc1 (mixture of isomers) [Otamixaban, (2R,3R)-2-(3-Carbamimidoyl-benzyl)-3-[4-(1-oxy-pyridin-4-yl)benzoylamino]-butyric acid methyl ester]
patients who showed the endpoint of the study / patients in the group [1]: 2/33 | patients with endpoint in comparison with the whole number of patients in the group [1]: (6.1%) | patients who showed the endpoint of the study / patients in the group [2]: 11/186 | patients with endpoint in comparison with the whole number of patients in the group [2]: (5.9%) | patients who showed the endpoint of the study / patients in the group [3]: 11/170 | patients with endpoint in comparison with the whole number of patients in the group [3]: (6.5%) | patients who showed the endpoint of the study / patients in the group [4]: 9/182 | patients with endpoint in comparison with the whole number of patients in the group [4]: (4.9%) | patients who showed the endpoint of the study / patients in the group [5]: 7/164 | patients with endpoint in comparison with the whole number of patients in the group [5]: (4.3%) | patients who showed the endpoint of the study / patients in the group [6]: 5/74 | patients with endpoint in comparison with the whole number of patients in the group [6]: (6.8%) | patients who showed the endpoint of the study / patients in the group [7]: 16/394 | patients with endpoint in comparison with the whole number of patients in the group [7]: (4.1%) | patients who showed the endpoint of the study / patients in the group [8]: 8/394 | patients with endpoint in comparison with the whole number of patients in the group [8]: (2.0%) | patients who showed the endpoint of the study / patients in the group [9]: 9/383 | patients with endpoint in comparison with the whole number of patients in the group [9]: (2.3%) | patients who showed the endpoint of the study / patients in the group [10]: 16/401 | patients with endpoint in comparison with the whole number of patients in the group [10]: (4.0%) | patients who showed the endpoint of the study / patients in the group [11]: 2/18 | patients with endpoint in comparison with the whole number of patients in the group [11]: (11.1%) | patients who showed the endpoint of the study / patients in the group [12]: 4/96 | patients with endpoint in comparison with the whole number of patients in the group [12]: (4.2%) | patients who showed the endpoint of the study / patients in the group [13]: 6/98 | patients with endpoint in comparison with the whole number of patients in the group [13]: (6.1%) | patients who showed the endpoint of the study / patients in the group [14]: 6/93 | patients with endpoint in comparison with the whole number of patients in the group [14]: (6.5%) | patients who showed the endpoint of the study / patients in the group [15]: 6/106 | patients with endpoint in comparison with the whole number of patients in the group [15]: (5.7%) | patients who showed the endpoint of the study / patients in the group (creatinine clearance 30 to 50 ml/min, Ota. infusion 0.035 mg/Kg/h): 0/7 | patients who showed the endpoint of the study / patients in the group [16]: 5/54 | patients with endpoint in comparison with the whole number of patients in the group [16]: (9.3%) | patients who showed the endpoint of the study / patients in the group [17]: 8/46 | patients with endpoint in comparison with the whole number of patients in the group [17]: (17.4%) | patients who showed the endpoint of the study / patients in the group [18]: 4/46 | patients with endpoint in comparison with the whole number of patients in the group [18]: (8.7%) | patients who showed the endpoint of the study / patients in the group [19]: 3/48 | patients with endpoint in comparison with the whole number of patients in the group [19]: (6.3%) | patients who showed the endpoint of the study / patients in the group [20]: 5/29 | patients with endpoint in comparison with the whole number of patients in the group [20]: (17.2%) | patients who showed the endpoint of the study / patients in the group [21]: 9/188 | patients with endpoint in comparison with the whole number of patients in the group [21]: (4.8%) | patients who showed the endpoint of the study / patients in the group [22]: 5/189 | patients with endpoint in comparison with the whole number of patients in the group [22]: (2.6%) | patients who showed the endpoint of the study / patients in the group [23]: 6/192 | patients with endpoint in comparison with the whole number of patients in the group [23]: (3.1%) | patients who showed the endpoint of the study / patients in the group [24]: 8/178 | patients with endpoint in comparison with the whole number of patients in the group [24]: (4.5%) | patients who showed the endpoint of the study / patients in the group (creatinine clearance <30 ml/min, Ota. infusion 0.035 mg/Kg/h): 0/2 | patients who showed the endpoint of the study / patients in the group (creatinine clearance <30 ml/min, Ota. infusion 0.070 mg/Kg/h): 0/2 | patients who showed the endpoint of the study / patients in the group (creatinine clearance <30 ml/min, Ota. infusion 0.105 mg/Kg/h): 0/0 | patients who showed the endpoint of the study / patients in the group [25]: 3/4 | patients with endpoint in comparison with the whole number of patients in the group [25]: 75.0% | patients who showed the endpoint of the study / patients in the group (creatinine clearance <30 ml/min, Ota. infusion 0.175 mg/Kg/h): 0/3 | patients who showed the endpoint of the study / patients in the group [26]: 3/79 | patients with endpoint in comparison with the whole number of patients in the group [26]: (3.8%) | patients who showed the endpoint of the study / patients in the group [27]: 14/382 | patients with endpoint in comparison with the whole number of patients in the group [27]: (3.7%) | patients who showed the endpoint of the study / patients in the group [28]: 10/378 | patients with endpoint in comparison with the whole number of patients in the group [28]: (2.6%) | patients who showed the endpoint of the study / patients in the group [29]: 9/372 | patients with endpoint in comparison with the whole number of patients in the group [29]: (2.4%) | patients who showed the endpoint of the study / patients in the group [30]: 14/392 | patients with endpoint in comparison with the whole number of patients in the group [30]: (3.6%) | subgroup analysis of clinical results (age, gender, creatinine clearance, body weight, management of the acute coronary syndrome) (demographic subgroups, baseline characteristics, invasive or medical management): consistency of the clinical results | anticoagulation based on rates of bailout and thrombotic complications (dose arms 0.035 mg/Kg/h and 0.070 mg/Kg/h (dose arms 1 and 2)): inadequate anticoagulation | effect on urgent revascularization or need for bailout [31]: no demonstrable effect | rates of primary endpoint lower than UFH+Eptifibatide [31]: 31-41%
